Patent US7235392B2, “Apoptotic EBV-transformed lymphocytes, a therapeutic agent for post-transplant lymphoproliferative disorder” (The Ohio State University Research Foundation, priority 2001, dated 2007)

Columns and labels:
[1] = tested on: PA-Lymphoblastoid Cell Line; experiment: PA-Lymphoblastoid Cell Line: effect of oxygen deprivation in the presence of 3 sensitizers (cell counts); type: cell-based; conditions: for cell count, Time (hour) 0: time 0 h; for cell count, Time (hour) 0 / cell count, Time (hour) 4 / cell count, Time (hour) 20: solutions and cells bubbled with nitrogen for 15 minutes (oxygen deprivation); for cell count, Time (hour) 4: time 4 h; for cell count, Time (hour) 20: time 20 h
Procedure: PA-Lymphoblastoid Cell Line: Study of the effect of oxygen deprivation in the presence of 3 sensitizers Six solutions were prepared having the solutions and the cells from each of the 6 sets were “bubbled” with nitrogen separately for 15 minutes before being mixed.

[2] = tested on: EBV infected human lymphoblastoid cells (LCLs); conditions: 10 mM glutathione
LCLs = experiment: Cell synchronization with aphidicolin, flow cytometric cell cycle analysis of propidium iodide stained cells; type: cell-based, human
Text: Using a method described by Matherly^1 cell synchronization may be achieved with the drug aphidicolin, a DNA polymerase inhibitor. This drug prevents the cells from entering S-phase, the phase during which the cells replicate their DNA. Therefore, the cells accumulate at G1 phase, immediately prior to the start of S phase. These effects of aphidicolin are reversible; the cells return to normal cell-cycling soon after the drug is removed from the culture by washing. Thus, because all of the cells were synchronized together in G1, after removal of aphidicolin, they will proceed through S-phase together. Using flow cytometric analyis of propidium-iodine stained cells, as described by Krishan^2, we were able to determine the stage of cell cycle of the cultures:
Consequently, we hypothesize that treatment with aphidicolin will increase the effectiveness of specific killing via RBO-DNA photochemistry.

| SMILES | hypoxic toxicity ([1]; oxygen deprivation, conclusion from cell counts) | cell count, Time (hour) 0 [1] | cell count, Time (hour) 4 [1] | cell count, Time (hour) 20 [1] | cell growth [2] | proportion of cells in S-phase (LCLs; after aphidicolin treatment and removal) | time of peak proportion of cells in S-phase after removal of aphidicolin (LCLs; after removal of aphidicolin from solution) |
| --- | --- | --- | --- | --- | --- | --- | --- |
| Cc1cc2c(cc1C)[n+]([O-])c1c(=O)[nH]c(=O)nc-1n2CC(O)C(O)C(O)CO (stereo not shown) [RBO, riboflavin N-oxide] | high hypoxic toxicity | 0.45 million cells/mL | 0.46 million cells/mL | 0.06 million cells/mL | – | – | – |
| N[C@@H](CCC(=O)N[C@@H](CS)C(=O)NCC(=O)O)C(=O)O [glutathione] | – | – | – | – | grow normally | – | – |
| C[C@@]1(CO)[C@H](O)CC[C@@]2(C)[C@H]1CC[C@H]1C[C@@H]3C[C@@]12CC[C@]3(O)CO [aphidicolin] | – | – | – | – | – | significantly increases | 6 h |
| Nc1n[n+]([O-])c2ccccc2[n+]1[O-] [Tirapazamine (TPZ), Tirapazamine] | – | 0.4 million cells/mL | 0.4 million cells/mL | 0.36 million cells/mL | – | – | – |
| Cc1cc2nc3c(=O)[nH]c(=O)nc-3n(C[C@H](O)[C@H](O)[C@H](O)CO)c2cc1C [Riboflavin (RB), Riboflavin] | – | 1 million cells/mL | 0.9 million cells/mL | 0.63 million cells/mL | – | – | – |
